Measurements as given in patent US12600732B2, “Bifunctional compounds for degrading BTK via ubiquitin proteosome pathway” (NURIX THERAPEUTICS, INC., priority 2019, dated 2026).

Legend:
TMD8 C481S cells = assay: Cell viability assay (CellTiter-Glo), TMD8 C481S cells; settings: for EC50: Homo sapiens, TMD8, 72 h; for EMAX (% viable cells): TMD8 C481S cells, treatment time 72 h
Method: Cell viability was determined using CellTiter-Glo 2.0 Luminescent Cell Viability Assay (Promega, G9242), which quantitates the amount of ATP present as a proxy for the number of viable cells in culture. Cells were plated with densities between 2000-4000 cells per well in 96-well plates. […] CellTiter-Glo reagent was added to cells at a dilution of 1:20, and the plate was incubated ten minutes at room temperature prior to reading the luminescence signal using an EnVision plate reader. Controls included cells treated with DMSO and wells that contained no cells, only media. Background luminescence signal was determined by control wells containing no cells, only media, and was then subtracted from all sample wells. Luminescence values were then normalized to DMSO-treated wells and reported at proportion viable cells.

TMD8 cells = assay: Cell viability assay (CellTiter-Glo), TMD8 cells; settings: for EC50: Homo sapiens, TMD8, 72 h; for EMAX (% viable cells): TMD8 cells, treatment time 72 h
BTK C481S = BTK C481S (Homo sapiens, UniProt Q06187, C481S); assay: BTK degradation (Total BTK HTRF) in TMD8 cells expressing BTK-C481S; assay type: cell-based; parameters: endogenous in cells; host or cells: TMD8 BTK-C481S (clone2C3), Cas9 RNP knock-in; settings: TMD8 BTK-C481S (clone2C3) cells, treatment time 4 h
Method: BTK levels were determined using Cisbio Total-BTK HTRF (Homologous Time-Resolved Fluorescence) kit (63ADK064PEG) according to the manufacturer's protocol. Briefly, cells were incubated in 1× supplied lysis buffer for 30 minutes. In an opaque white low volume 96-well plate (Cisbio, 66PL96005), cell lysate was combined with two different specific BTK antibodies, one conjugated with Eu^3+-Cryptate FRET donor and one conjugated with d2 FRET acceptor. Assay controls include wells containing cell lysate with only the Eu^3+-Cryptate FRET donor antibody and wells containing both HTRF antibodies and lysis buffer without cells or control lysate provided by Cisbio. HTRF ratio was calculated as (acceptor signal at 665 nm/donor signal at 620 nm)×10^4. Background HTRF levels were determined from the control well containing the donor, but no acceptor, antibody. Background HTRF levels were subtracted from all samples. Readouts were reported as HTRF levels relative to HTRF levels of DMSO-treated cells. Four-parameter non-linear regressions were performed in GraphPad Prism 7.02 to obtain DC50 values.
BTK Degradation (Total BTK HTRF) at Four Hours in TMD8 Cells Expressing BTK-C481S
This example evaluates the potency of CTM in degrading […]. The BTK binding moieties utilized in CTMs bind to the BTK active site. This example evaluates whether the active site mutation C481S affects CTM-induced degradation of BTK.

BTK = molecular target: T1, BTK (Mus musculus, UniProt P35991); assay: In vivo degradation of BTK in mouse PD experiments with oral dosing; settings: oral dose 30 mg/kg, 24 h
T1 construct: from tissue; host or cells: mouse blood B cells / splenocytes (CD-1 or BALB/c)
In short: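 BTK in blood or splenocytes read by flow cytometry (or HTRF), degradation taken as B-cell minus T-cell BTK MFI versus vehicle. Mice (CD-1 or BALB/c) received compound orally, initially 90 mg/kg for 6 h, then lower doses and longer time points.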

| SMILES | EC50 (TMD8 C481S cells) | EMAX (% viable cells) (TMD8 C481S cells) | EC50 (TMD8 cells) | EMAX (% viable cells) (TMD8 cells) | DC50 (BTK C481S) | % BTK Remaining (BTK; blood, flow cytometry) | % BTK Remaining (BTK; splenocytes, HTRF) |
| --- | --- | --- | --- | --- | --- | --- | --- |
| CN1CCN([C@@H]2CCCN(c3cnc(C(N)=O)c(Nc4ccc(C5CCN(C6CN(Cc7ccc8c(c7)C(=O)N(C7CCC(=O)NC7=O)C8=O)C6)CC5)cc4)n3)C2)C1=O (stereo partly drawn) [Compound 101] | 431 nM | 27% | 93.4 nM | 27% | 4.3 nM |  |  |
| NC(=O)c1ncc(N2CCCC3(COC3)C2)nc1Nc1ccc(C2CCN(C[C@H]3CCN(c4ccc5c(c4)C(=O)N(C4CCC(=O)NC4=O)C5=O)C3)CC2)cc1 (stereo partly drawn) [Compound 126] |  |  |  |  | 7.7 nM | 33% |  |
| CN1CCN([C@H]2CCCN(c3cnc(C(N)=O)c(Nc4ccc(C5CCN(CC6CCN(c7ccc(NC8CCC(=O)NC8=O)cn7)CC6)CC5)cc4)n3)C2)C1=O (stereo partly drawn) [Compound 129] | 4.36 nM | 14% | 3.17 nM | 16% | 5.3 nM | 16% |  |
| NC(=O)c1ncc(N2CCCCC2)nc1Nc1ccc(C2CCN(CC3CCN(c4ccc5c(=O)n(C6CCC(=O)NC6=O)ccc5c4)CC3)CC2)cc1 (stereo not drawn) [Compound 133] | 6.83 nM | 9% | 6.98 nM | 15% | 8.3 nM | 10% |  |
| CN1CCN([C@@H]2CCCN(c3cnc(C(N)=O)c(Nc4ccc(C5CCN(CC6CCN(c7ccc8c(c7)n(C)c(=O)n8C7CCC(=O)NC7=O)CC6)CC5)cc4)n3)C2)C1=O (stereo partly drawn) [Compound 156] |  |  |  |  | 0.4 nM |  |  |
| CN1CCN([C@@H]2CCCN(c3cnc(C(N)=O)c(Nc4ccc(C5CCN(CC6CCN(c7ccc(NC8CCC(=O)NC8=O)nc7)CC6)CC5)cc4)n3)C2)C1=O (stereo partly drawn) [Compound 166] |  |  |  |  | 8.1 nM |  | 19% |
| NC(=O)c1ncc(N2CCCCC2)nc1Nc1ccc(C2CCN(CC3CCN(c4ccc(C(=O)NC5CCC(=O)NC5=O)nc4)CC3)CC2)cc1 (stereo not drawn) [Compound 182] |  |  |  |  | 14.5 nM |  | 12% |
